# Measured values as given in patent US7566712B2, “Biaryl piperazinyl-pyridine analogues” (Neurogen Corporation, priority 2003, dated 2009).
# Biological target: T1, human capsaicin receptor (Homo sapiens, UniProt Q8NER1)
# T1 construct: pBK-CMV expression construct encoding the full length human capsaicin receptor; expressed in transfected cells
# Assay: Calcium mobilization assay, determination of antagonist activity (Example 6)
# Format: cell-based
# Conditions: Table II; IC50 determined as described in Example 6
# Method in brief: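 HEK293 clonal lines stably expressing full-length human capsaicin receptor, loaded with Fluo-3 AM in KRH buffer pH 7.4, 1–2 h at 37 °C. Compounds (1–5 μM final) preincubated 0.5–6 h at room temperature, then capsaicin at its EC50 added. FLIPR/Fluoroskan calcium signal; IC50 as 50% decrease of capsaicin response.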
# T1 sequence (Q8NER1 whole entry): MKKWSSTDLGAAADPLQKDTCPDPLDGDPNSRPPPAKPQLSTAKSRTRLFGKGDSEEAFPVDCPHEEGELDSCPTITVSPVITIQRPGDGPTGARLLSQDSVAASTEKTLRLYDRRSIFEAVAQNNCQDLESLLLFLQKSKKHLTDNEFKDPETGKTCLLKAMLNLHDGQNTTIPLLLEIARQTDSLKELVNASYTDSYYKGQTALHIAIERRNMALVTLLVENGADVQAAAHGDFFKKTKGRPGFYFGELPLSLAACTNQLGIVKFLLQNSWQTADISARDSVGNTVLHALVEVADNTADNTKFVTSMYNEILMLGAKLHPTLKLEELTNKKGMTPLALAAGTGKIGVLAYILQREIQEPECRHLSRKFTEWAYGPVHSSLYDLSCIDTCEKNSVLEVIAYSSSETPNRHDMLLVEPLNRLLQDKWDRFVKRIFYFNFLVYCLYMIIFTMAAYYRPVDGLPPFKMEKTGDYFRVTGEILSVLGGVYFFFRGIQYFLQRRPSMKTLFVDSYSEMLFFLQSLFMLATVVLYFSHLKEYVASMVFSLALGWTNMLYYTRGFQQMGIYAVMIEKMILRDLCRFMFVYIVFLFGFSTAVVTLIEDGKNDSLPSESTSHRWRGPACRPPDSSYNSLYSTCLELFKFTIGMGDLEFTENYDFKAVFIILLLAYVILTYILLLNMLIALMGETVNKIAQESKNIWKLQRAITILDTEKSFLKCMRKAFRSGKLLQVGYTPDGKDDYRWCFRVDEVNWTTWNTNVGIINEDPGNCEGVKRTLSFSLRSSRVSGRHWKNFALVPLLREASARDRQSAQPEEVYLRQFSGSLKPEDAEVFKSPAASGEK
row,SMILES,IC50
1,"CCOc1cccc(-c2cc(N3CCN(c4ncccc4C(F)(F)F)C[C@H]3C)nc(N3CCOCC3)n2)c1 [Example 530, 4-(4-(3-ethoxyphenyl)-6-{(2R)-2-methyl-4-[3-(trifluoromethyl)pyridin-2-yl]piperazin-1-yl}pyrimidin-2-yl)morpholine]",≤ 1000 nM
2,"c1ccc(N2CCN(c3nc(-c4cccc5c4oc4ccccc45)nc(N4CCOCC4)n3)CC2)nc1 [Example 432, 2-dibenzo[b,d]furan-4-yl-4-morpholin-4-yl-6-(4-pyridin-2-ylpiperazin-1-yl)-1,3,5-triazine]",≤ 1000 nM
3,"Fc1ccc(-c2cc(N3CCN(c4ncccc4C(F)(F)F)CC3)nc(OCC3CC3)n2)cc1Cl [Example 553, 4-(3-chloro-4-fluorophenyl)-2-(cyclopropylmethoxy)-6-{4-[3-(trifluoromethyl)pyridin-2-yl]piperazin-1-yl}pyrimidine]",≤ 1000 nM
4,"CCOC(=O)c1cccc(-c2nc(N3CCOCC3)nc(N3CCN(c4ccccn4)CC3)n2)c1 [Example 434, ethyl 3-[4-morpholin-4-yl-6-(4-pyridin-2-ylpiperazin-1-yl)-1,3,5-triazin-2-yl]benzoate]",≤ 1000 nM
5,"CCOc1cccc(-c2cc(N3CCN(c4ncccc4Cl)C[C@H]3C)nc(N3CCOCC3)n2)c1 [Example 531, 4-[4-[(2R)-4-(3-chloropyridin-2-yl)-2-methylpiperazin-1-yl]-6-(3-ethoxyphenyl)pyrimidin-2-yl]morpholine]",≤ 1000 nM

# Same assay, conditions: Table II; determined as described in Example 6 (antagonist activity); "*" = 1 micromolar or less
row,SMILES,IC50
1,"C[C@@H]1CN(c2ncccc2C(F)(F)F)CCN1c1cc(-c2ccc(F)c(F)c2)nc(N2CCC[C@H]2C)n1 [Example 936, 4-(3,4-difluorophenyl)-2-[(2R)-2-methylpyrrolidin-1-yl]-6-{(2R)-2-methyl-4-[3-(trifluoromethyl)pyridin-2-yl]piperazin-1-yl}pyrimidine]",≤ 1000 nM
2,"CC1CCCN1c1nc(-c2ccc(F)c(Cl)c2)cc(N2CCN(c3ncc(C(=O)N(C)C)cc3Cl)CC2)n1 (stereo not shown) [Example 824, 5-chloro-6-{4-[6-(3-chloro-4-fluorophenyl)-2-(2-methylpyrrolidin-1-yl)pyrimidin-4-yl]piperazin-1-yl}-N,N-dimethylnicotinamide]",≤ 1000 nM
3,"C[C@@H]1CN(c2nccnc2Cl)CCN1c1cc(-c2ccc(F)c(F)c2)nc(N2CCOCC2)n1 [Example 822, 4-[4-[(2R)-4-(3-chloropyrazin-2-yl)-2-methylpiperazin-1-yl]-6-(3,4-difluorophenyl)pyrimidin-2-yl]morpholine]",≤ 1000 nM
4,"Cc1cc(-c2cc(N3CCN(c4ncccc4C(F)(F)F)C[C@H]3C)nc(N3CCC3C)n2)ccc1F (stereo partly drawn) [Example 786, 4-(4-fluoro-3-methyiphenyl)-2-(2-methylazetidin-1-yl)-6-{(2R)-2-methyl-4-[3-(trifluoromethyl)pyridin-2-yl]piperazin-1-yl}pyrimidine]",≤ 1000 nM
5,"COc1ccc(-c2cc(N3CCN(c4ncccc4Cl)C[C@H]3C)nc(N3CCCC3)n2)cc1C [Example 809, 4-[(2R)-4-(3-chloropyridin-2-yl)-2-methylpiperazin-1-yl]-6-(4-methoxy-3-methylphenyl)-2-pyrrolidin-1-ylpyrimidine]",≤ 1000 nM
6,"C[C@@H]1CCCN1c1nc(-c2ccc(F)c(F)c2)cc(N2CCN(c3ncccc3Cl)C[C@@H]2C)n1 [Example 930, 4-[(2S)-4-(3-chloropyridin-2-yl)-2-methylpiperazin-1-yl]-6-(3,4-difluorophenyl)-2-[(2R)-2-methylpyrrolidin-1-yl]pyrimidine]",≤ 1000 nM

# Same assay, conditions: Table II; determined as described in Example 6; class symbol
row,SMILES,IC50
1,"Cc1cccc(-c2nc(N3CCN(c4ncccc4C(F)(F)F)CC3)nc(N3CC(C)OC(C)C3)n2)c1 (stereo not shown) [Example 263, 2-(2,6-dimethylmorpholin-4-yl)-4-(3-methylphenyl)-6-{4-[3-(trifluoromethyl)pyridin-2-yl]piperazin-1-yl}-1,3,5-triazine]",≤ 1000 nM
2,"Cc1ccccc1-c1nc(N2CCOCC2)nc(N2CCN(c3ccccn3)CC2)n1 [Example 268, 2-(2-methylphenyl)-4-morpholin-4-yl-6-(4-pyridin-2-ylpiperazin-1-yl)-1,3,5-triazine]",≤ 1000 nM

# Same assay, conditions: determined as described in Example 6 (calcium mobilization, antagonist activity); Table II
row,SMILES,IC50
1,"CC1CCCN1c1nc(-c2ccc(F)c(F)c2)cc(N2CCN(c3ncccc3F)CC2)n1 (stereo not shown) [Example 748, 4-(3,4-difluorophenyl)-6-[4-(3-fluoropyridin-2-yl)piperazin-1-yl]-2-(2-methylpyrrolidin-1-yl)pyrimidine]",≤ 1000 nM
2,"Fc1ccc(-c2cc(N3CCN(c4ncccc4C(F)(F)F)CC3)nc(N3CCC3)n2)cc1Cl [Example 710, 2-azetidin-1-yl-4-(3-chloro-4-fluorophenyl)-6-{4-[3-(trifluoromethyl)pyridin-2-yl]piperazin-1-yl}pyrimidine]",≤ 1000 nM
3,"CC1CCCN1c1nc(-c2ccc(F)c(Cl)c2)cc(N2CCN(c3ncccc3C#N)CC2)n1 (stereo not shown) [Example 709, 2-{4-[6-(3-chloro-4-fluorophenyl)-2-(2-methylpyrrolidin-1-yl)pyrimidin-4-yl]piperazin-1-yl}nicotirionitrile]",≤ 1000 nM
